Literature values, collected in patent publication EP0081783B2, “Renin inhibitory peptides having Phe 13 deletion” (Merck & Co., Inc., priority 1981, dated 1989).

Test system: hog renin
Details: after the injection of hog renin into nephrectomized rats

In the case of pepstatin, the “blood pressure in vivo” value is listed as “reduce blood pressure”.
